This is an account of results in patent publication US20090099169A1, “Benzofuran Compounds As EP1 Receptor Antagonists” (GLAXO GROUP LIMITED, priority 2006, published 2009).

Where a name gives a salt, the structure may show the parent alone.

Assay [1] deals with gastric lesions induced by taurocholate acid, aspirin or indomethacin. The conditions noted are these: rats, Ogletree et al 1992; cited from earlier work.
Another assay deals with T1, human EP1 receptor (Homo sapiens, UniProt P34995).
T1 sequence (P34995 1-402): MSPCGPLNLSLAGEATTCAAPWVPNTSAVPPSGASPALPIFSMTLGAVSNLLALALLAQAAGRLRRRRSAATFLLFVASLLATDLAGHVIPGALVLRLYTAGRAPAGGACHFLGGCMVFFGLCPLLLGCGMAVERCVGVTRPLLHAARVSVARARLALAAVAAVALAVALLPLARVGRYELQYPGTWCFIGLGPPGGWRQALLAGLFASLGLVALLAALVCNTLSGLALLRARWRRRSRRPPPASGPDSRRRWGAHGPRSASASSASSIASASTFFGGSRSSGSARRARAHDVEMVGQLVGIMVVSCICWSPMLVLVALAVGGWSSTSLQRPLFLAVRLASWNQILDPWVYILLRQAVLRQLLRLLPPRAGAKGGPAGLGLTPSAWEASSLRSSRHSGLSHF
In words: Binding assay for the human prostanoid EP1 receptor (radioligand competition). Details: expressed in transfected cells; host or cells: CHO-K1 (membranes). Conditions: CHO-K1 membranes; [3H]-PGE2 for Examples 1-17, 19, 33, 34, 60 and 61, 3-{2-[5-Bromo-2-(2,4-difluorobenzyloxy)-phenyl]-5-methyl-pyrrol-1-yl}-6-[3H3-methoxy]methoxy-benzoic acid for the remaining; averages of a number of experiments; read-out: pIC50 value (binding assay for the human prostanoid EP1 receptor) (converted). The method, boiled down:
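Membranes from CHO-K1 cells stably expressing human EP1, in pH 6 MES buffer with 10 mM MgCl2. Competition with [3H]-PGE2 (3 nM final) for 30 min at 30 °C, or alternatively with a tritiated benzoic-acid ligand (0.2 nM final) for 45 min at 37 °C; filtration and scintillation counting, IC50 by non-linear fitting.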

In the next assay the target is T2, human TP receptor (Homo sapiens, UniProt P21731).
T2 construct: expressed in transfected cells; host or cells: CHO-K1
T2 sequence (P21731 1-343): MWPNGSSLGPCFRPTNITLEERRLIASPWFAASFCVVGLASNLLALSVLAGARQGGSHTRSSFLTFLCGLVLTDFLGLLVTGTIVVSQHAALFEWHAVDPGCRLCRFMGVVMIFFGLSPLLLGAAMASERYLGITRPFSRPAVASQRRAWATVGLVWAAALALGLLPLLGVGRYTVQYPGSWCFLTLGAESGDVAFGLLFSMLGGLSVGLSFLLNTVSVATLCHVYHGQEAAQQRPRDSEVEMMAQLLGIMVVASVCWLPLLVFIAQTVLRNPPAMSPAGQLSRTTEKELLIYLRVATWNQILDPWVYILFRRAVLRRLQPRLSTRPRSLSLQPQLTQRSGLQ
As to the kind of experiment: human TP calcium mobilisation assay. Format: cell-based. The conditions noted are these: CHO-K1 cells, antagonism of U46619; averages of a number of experiments; read-out: functional pKi value (human TP calcium mobilisation assay) (converted). Here is the method:
To determine if a compound has agonist or antagonist activity at the TP receptor a functional calcium mobilisation assay may be performed. Briefly, the antagonist properties of compounds are assessed by their ability to inhibit the mobilisation of intracellular calcium ([Ca^2+]i) in response to activation of TP receptors by the stable TXA2 mimetic U46619 (9,11-dideoxy-11α,9α-epoxy-methanoprostaglandin F2α; commercially available from e.g Sigma-Aldrich). Increasing concentrations of antagonist reduce the amount of calcium that a given concentration of U46619 can mobilise. The net effect is to displace the U46619 concentration-effect curve. The amount of calcium produced is assessed using a calcium-sensitive fluorescent dye such as Fluo-4, AM and a suitable instrument such as a Fluorimetric Imaging Plate Reader (FLIPR). Increasing amounts of [Ca^2+]i produced by receptor activation increase the amount of fluorescence produced by the dye and give rise to an increasing signal. The signal may be detected using the FLIPR instrument and the data generated may be analysed with suitable curve-fitting software. The agonist activity of the compounds are determined by their ability to cause an increase in intracellular mobilisation in the absence of U46619.
The human TP calcium mobilisation assay utilises Chinese hamster ovary-K1 (CHO-K1) cells into which a stable (pCIN; BioTechniques 20 (1996): 102-110) vector containing TP cDNA has previously been transfected. Cells are cultured in suitable flasks containing culture medium such as DMEM:F-12 supplemented with 10% v/v foetal calf serum, 2 mM L-glutamine, 0.25 mg/ml geneticin, 100 μM flurbiprofen and 10 μg/ml puromycin.
(§1) For assay, cells are harvested using a proprietary reagent that dislodges cells such as Versene. Cells are re-suspended in a suitable quantity of fresh culture media for introduction into a 96-well plate. Following incubation for 24 hours at 37° C. the culture media is replaced with a medium containing Fluo-4 and the detergent pluronic acid, and a further incubation takes place. Concentrations of compounds are then added to the plate in order to construct concentration-effect curves. This may be performed on the FLIPR in order to assess the agonist properties of the compounds. Concentrations of U46619 are then added to the plate in order to assess the antagonist properties of the compounds.
The data so generated may be analysed by means of a computerised curve-fitting routine. The concentration of compound that elicits a half-maximal inhibition of the calcium mobilisation induced by U46619 (pIC50) may then be estimated, and the percentage activation caused by the compounds directly can be used to determine if there is any agonism present.
For orientation: A change in cytosolic calcium serves as a functional read-out for many receptors and channels.

Another assay addresses T3, human EP3 receptor (Homo sapiens, UniProt P43115).
T3 construct: expressed in transfected cells; host or cells: CHO-K1
T3 sequence (P43115 1-390): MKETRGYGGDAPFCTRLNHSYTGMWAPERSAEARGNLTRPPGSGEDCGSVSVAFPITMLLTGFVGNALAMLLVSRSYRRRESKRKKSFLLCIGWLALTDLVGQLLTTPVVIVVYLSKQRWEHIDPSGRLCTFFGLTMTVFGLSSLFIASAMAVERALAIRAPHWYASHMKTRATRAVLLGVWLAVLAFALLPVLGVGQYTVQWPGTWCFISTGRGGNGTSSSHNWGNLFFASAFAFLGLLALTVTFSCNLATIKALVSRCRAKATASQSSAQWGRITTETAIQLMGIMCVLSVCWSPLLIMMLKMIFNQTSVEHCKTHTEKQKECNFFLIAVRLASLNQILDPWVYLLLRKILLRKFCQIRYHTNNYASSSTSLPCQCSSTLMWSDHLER
In words: human EP3 calcium mobilisation assay. The conditions noted are these: CHO-K1 cells, antagonism of PGE2; averages of a number of experiments; read-out: functional pKi value (human EP3 calcium mobilisation assay) (converted). Format: cell-based. As to the method: Briefly, the antagonist properties of compounds are assessed by their ability to inhibit the mobilisation of intracellular calcium ([Ca^2+]i) in response to activation of EP1 or EP3 receptors by the natural agonist hormone prostaglandin E2 (PGE2). Increasing concentrations of antagonist reduce the amount of calcium that a given concentration of PGE2 can mobilise. The net effect is to displace the PGE2 concentration-effect curve to higher concentrations of PGE2. The amount of calcium produced is assessed using a calcium-sensitive fluorescent dye such as Fluo-4, AM and a suitable instrument such as a Fluorimetric Imaging Plate Reader (FLIPR). Increasing amounts of [Ca^2+]i produced by receptor activation increase the amount of fluorescence produced by the dye and give rise to an increasing signal. The signal may be detected using the FLIPR instrument and the data generated may be analysed with suitable curve-fitting software.
The human EP1 or EP3 calcium mobilisation assay (hereafter referred to as ‘the calcium assay’) utilises Chinese hamster ovary-K1 (CHO-K1) cells into which a stable (PCIN; BioTechniques 20 (1996): 102-110) vector containing either EP1 or EP3 cDNA has previously been transfected. Cells are cultured in suitable flasks containing culture medium such as DMEM:F-12 supplemented with 10% v/v foetal calf serum, 2 mM L-glutamine, 0.25 mg/ml geneticin, 100 μM flurbiprofen and 10 μg/ml puromycin.
as §1, with “384-well” for “96-well”, “PGE2” for “U46619”
The data so generated may be analysed by means of a computerised curve-fitting routine. The concentration of compound that elicits a half-maximal inhibition of the calcium mobilisation induced by PGE2 (pIC50) may then be estimated.

Assay [2] concerns rat model of chronic constriction injury. The conditions noted are these: Anesthesia and Analgesia 2001, 93, 1012-7; cited from earlier work.
Assay [3] concerns rodent model of post-operative pain. Conditions: Anesthesia and Analgesia 2001, 92, 233-238; cited from earlier work.

In the case of `O=C(O)Cc1ccc(CCNS(=O)(=O)c2ccc(Cl)cc2)cc1` [BM 13505], in assay [1], the gastric lesions result is on record as “inhibit gastric lesions”.
Take `CC(C)c1cc2cc(Cl)cc(Cc3ccc(-c4nc5ccccc5[nH]4)o3)c2o1` [Example 2, 2-(5-{[5-Chloro-2-(1-methylethyl)-1-benzofuran-7-yl]methyl}-2-furanyl)-1H-benzimidazole Hydrochloride]: the IC50 on human EP1 receptor was at most 0.1 µM. The Ki at human TP receptor is over 3.16 µM.
For `CC(C)c1cc2cc(Cl)cc(Cc3ccc(C(=O)Nc4c(F)cccc4F)o3)c2o1` [Example 8, 5-{[5-Chloro-2-(1-methylethyl)-1-benzofuran-7-yl]methyl}-N-(2,6-difluorophenyl)-2-furancarboxamide], the figures for the Ki at human EP3 receptor and at human TP receptor were 0.501 to 10 µM and over 3.16 µM, respectively.
In the case of `Cc1cc(Cl)ccc1S(=O)(=O)NC[C@H]1C2CCC(CC2)[C@@H]1/C=C\CCCC(=O)O` [ONO-8711], the hyperalgesia and allodynia result in assay [2] is “reduces hyperalgesia and allodynia”. In addition, the mechanical hyperalgesia result in assay [3] is recorded as “inhibits mechanical hyperalgesia”.
